In paper PMC3428805 (Journal of Medicinal Chemistry, 2012):

How the values were obtained:
[1] = Human microsomal stability; settings: human microsomes, 3 µM
[2] = Mouse microsomal stability; settings: mouse microsomes, 3 µM
[3] = Human plasma protein binding, equilibrium dialysis; settings: 50%
K562 cells = experiment: cells; assay type: cell-based; settings: Homo sapiens, K562, 72 h, read-out: K562 cells, GI50
Kif5a = target: T1, Kif5a (Homo sapiens, UniProt Q12840); experiment: Kinesin panel, basal and MT-stimulated ATPase, Kif5a; assay type: biochemical; settings: data not shown
T1 sequence (Q12840 1-1032): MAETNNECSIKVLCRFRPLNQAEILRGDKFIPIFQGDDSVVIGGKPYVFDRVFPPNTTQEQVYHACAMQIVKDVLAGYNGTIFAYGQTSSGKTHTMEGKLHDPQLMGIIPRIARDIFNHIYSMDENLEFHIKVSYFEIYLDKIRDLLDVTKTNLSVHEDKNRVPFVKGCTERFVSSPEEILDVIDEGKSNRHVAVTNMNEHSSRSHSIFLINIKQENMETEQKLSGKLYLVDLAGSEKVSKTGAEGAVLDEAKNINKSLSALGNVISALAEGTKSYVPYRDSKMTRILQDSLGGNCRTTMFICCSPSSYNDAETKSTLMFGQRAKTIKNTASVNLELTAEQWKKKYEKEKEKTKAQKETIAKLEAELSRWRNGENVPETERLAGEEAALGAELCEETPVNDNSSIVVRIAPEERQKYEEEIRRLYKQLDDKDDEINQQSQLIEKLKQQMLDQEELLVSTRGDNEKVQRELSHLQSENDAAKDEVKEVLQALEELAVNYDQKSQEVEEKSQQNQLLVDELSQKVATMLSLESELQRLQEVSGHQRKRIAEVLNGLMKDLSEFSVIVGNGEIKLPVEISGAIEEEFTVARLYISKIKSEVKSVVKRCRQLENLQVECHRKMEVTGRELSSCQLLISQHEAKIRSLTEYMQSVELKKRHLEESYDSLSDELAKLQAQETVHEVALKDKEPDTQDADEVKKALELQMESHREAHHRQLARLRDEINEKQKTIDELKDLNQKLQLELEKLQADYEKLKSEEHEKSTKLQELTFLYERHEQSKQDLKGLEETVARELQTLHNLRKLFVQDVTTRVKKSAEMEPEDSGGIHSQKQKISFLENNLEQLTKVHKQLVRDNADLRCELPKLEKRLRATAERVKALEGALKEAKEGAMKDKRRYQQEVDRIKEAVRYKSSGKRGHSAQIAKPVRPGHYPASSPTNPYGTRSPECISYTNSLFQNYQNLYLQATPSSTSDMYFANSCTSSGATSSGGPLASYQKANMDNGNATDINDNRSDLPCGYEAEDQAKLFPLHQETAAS

Kif7 = target: T2, Kif7 (Homo sapiens, UniProt Q2M1P5); experiment: Kinesin panel, basal and MT-stimulated ATPase, Kif7; assay type: biochemical; settings: data not shown
T2 sequence (Q2M1P5 1-1343): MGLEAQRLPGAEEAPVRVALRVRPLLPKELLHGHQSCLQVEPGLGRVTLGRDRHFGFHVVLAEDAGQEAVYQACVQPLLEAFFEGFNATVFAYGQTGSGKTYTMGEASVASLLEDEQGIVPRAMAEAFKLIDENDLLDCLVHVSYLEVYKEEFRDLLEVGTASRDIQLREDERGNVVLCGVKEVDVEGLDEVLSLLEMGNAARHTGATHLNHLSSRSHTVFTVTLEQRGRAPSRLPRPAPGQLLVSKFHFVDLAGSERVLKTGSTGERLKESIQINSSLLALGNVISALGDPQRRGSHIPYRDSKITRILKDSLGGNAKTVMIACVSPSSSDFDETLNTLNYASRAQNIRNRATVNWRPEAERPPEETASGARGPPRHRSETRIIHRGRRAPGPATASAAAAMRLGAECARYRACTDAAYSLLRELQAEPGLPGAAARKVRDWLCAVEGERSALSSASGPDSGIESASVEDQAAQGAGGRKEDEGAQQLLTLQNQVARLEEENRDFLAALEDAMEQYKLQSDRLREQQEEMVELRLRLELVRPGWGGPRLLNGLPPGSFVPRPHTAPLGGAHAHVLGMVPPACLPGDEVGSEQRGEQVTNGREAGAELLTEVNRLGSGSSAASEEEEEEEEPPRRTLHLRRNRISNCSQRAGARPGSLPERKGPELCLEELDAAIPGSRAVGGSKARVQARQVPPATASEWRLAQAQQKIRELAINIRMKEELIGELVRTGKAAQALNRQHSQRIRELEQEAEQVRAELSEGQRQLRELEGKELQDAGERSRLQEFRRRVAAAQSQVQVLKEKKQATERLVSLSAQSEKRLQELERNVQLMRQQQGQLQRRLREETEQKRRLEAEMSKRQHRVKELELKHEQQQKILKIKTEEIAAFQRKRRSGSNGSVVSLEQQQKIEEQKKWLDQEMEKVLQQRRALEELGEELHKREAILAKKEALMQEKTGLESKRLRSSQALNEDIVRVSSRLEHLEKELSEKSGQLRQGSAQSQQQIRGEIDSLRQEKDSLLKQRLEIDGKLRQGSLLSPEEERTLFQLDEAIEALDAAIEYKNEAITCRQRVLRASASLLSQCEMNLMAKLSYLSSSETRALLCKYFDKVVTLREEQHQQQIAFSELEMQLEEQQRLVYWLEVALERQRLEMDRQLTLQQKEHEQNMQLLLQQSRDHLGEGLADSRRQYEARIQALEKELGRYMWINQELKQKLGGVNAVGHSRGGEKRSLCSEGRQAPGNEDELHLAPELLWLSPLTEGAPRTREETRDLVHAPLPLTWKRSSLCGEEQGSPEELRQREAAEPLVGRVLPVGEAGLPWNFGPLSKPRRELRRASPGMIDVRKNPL

MPP1 = MPP1 (Homo sapiens, UniProt Q96Q89); experiment: Kinesin panel, basal and MT-stimulated ATPase, MPP1; assay type: biochemical; settings: data not shown
MKLP-2 = target: T3, MKLP-2 (Homo sapiens, UniProt O95235); experiment: Kinesin panel, basal and MT-stimulated ATPase, MKLP-2; assay type: biochemical; settings: data not shown
T3 sequence (O95235 1-890): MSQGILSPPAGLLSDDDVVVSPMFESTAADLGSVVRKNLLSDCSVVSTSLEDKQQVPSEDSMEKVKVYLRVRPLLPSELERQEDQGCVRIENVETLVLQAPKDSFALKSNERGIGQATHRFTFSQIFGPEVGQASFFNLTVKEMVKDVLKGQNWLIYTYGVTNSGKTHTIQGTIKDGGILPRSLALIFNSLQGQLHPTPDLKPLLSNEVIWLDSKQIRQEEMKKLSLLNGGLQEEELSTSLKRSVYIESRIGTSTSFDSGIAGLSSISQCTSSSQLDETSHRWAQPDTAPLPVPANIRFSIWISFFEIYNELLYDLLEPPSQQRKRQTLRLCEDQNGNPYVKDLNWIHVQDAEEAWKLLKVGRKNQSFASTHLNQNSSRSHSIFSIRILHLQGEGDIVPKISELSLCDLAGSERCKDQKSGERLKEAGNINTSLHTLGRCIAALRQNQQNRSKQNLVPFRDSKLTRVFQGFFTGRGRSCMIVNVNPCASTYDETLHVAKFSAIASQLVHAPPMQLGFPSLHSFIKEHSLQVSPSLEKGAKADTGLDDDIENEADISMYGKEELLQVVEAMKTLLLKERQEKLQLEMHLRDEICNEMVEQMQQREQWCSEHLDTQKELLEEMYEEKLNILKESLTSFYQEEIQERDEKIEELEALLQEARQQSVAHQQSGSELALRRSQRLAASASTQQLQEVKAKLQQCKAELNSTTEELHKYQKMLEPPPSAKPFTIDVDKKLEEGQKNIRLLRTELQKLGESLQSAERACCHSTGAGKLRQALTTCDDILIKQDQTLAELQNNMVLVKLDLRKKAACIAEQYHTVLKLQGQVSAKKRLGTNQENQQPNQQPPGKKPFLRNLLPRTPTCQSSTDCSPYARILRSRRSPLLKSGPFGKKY

CENP-E = CENP-E (Homo sapiens, UniProt Q02224); experiment: Kinesin panel, basal and MT-stimulated ATPase, CENP-E; assay type: biochemical; settings: data not shown
Sequence of CENP-E (Q02224 whole entry): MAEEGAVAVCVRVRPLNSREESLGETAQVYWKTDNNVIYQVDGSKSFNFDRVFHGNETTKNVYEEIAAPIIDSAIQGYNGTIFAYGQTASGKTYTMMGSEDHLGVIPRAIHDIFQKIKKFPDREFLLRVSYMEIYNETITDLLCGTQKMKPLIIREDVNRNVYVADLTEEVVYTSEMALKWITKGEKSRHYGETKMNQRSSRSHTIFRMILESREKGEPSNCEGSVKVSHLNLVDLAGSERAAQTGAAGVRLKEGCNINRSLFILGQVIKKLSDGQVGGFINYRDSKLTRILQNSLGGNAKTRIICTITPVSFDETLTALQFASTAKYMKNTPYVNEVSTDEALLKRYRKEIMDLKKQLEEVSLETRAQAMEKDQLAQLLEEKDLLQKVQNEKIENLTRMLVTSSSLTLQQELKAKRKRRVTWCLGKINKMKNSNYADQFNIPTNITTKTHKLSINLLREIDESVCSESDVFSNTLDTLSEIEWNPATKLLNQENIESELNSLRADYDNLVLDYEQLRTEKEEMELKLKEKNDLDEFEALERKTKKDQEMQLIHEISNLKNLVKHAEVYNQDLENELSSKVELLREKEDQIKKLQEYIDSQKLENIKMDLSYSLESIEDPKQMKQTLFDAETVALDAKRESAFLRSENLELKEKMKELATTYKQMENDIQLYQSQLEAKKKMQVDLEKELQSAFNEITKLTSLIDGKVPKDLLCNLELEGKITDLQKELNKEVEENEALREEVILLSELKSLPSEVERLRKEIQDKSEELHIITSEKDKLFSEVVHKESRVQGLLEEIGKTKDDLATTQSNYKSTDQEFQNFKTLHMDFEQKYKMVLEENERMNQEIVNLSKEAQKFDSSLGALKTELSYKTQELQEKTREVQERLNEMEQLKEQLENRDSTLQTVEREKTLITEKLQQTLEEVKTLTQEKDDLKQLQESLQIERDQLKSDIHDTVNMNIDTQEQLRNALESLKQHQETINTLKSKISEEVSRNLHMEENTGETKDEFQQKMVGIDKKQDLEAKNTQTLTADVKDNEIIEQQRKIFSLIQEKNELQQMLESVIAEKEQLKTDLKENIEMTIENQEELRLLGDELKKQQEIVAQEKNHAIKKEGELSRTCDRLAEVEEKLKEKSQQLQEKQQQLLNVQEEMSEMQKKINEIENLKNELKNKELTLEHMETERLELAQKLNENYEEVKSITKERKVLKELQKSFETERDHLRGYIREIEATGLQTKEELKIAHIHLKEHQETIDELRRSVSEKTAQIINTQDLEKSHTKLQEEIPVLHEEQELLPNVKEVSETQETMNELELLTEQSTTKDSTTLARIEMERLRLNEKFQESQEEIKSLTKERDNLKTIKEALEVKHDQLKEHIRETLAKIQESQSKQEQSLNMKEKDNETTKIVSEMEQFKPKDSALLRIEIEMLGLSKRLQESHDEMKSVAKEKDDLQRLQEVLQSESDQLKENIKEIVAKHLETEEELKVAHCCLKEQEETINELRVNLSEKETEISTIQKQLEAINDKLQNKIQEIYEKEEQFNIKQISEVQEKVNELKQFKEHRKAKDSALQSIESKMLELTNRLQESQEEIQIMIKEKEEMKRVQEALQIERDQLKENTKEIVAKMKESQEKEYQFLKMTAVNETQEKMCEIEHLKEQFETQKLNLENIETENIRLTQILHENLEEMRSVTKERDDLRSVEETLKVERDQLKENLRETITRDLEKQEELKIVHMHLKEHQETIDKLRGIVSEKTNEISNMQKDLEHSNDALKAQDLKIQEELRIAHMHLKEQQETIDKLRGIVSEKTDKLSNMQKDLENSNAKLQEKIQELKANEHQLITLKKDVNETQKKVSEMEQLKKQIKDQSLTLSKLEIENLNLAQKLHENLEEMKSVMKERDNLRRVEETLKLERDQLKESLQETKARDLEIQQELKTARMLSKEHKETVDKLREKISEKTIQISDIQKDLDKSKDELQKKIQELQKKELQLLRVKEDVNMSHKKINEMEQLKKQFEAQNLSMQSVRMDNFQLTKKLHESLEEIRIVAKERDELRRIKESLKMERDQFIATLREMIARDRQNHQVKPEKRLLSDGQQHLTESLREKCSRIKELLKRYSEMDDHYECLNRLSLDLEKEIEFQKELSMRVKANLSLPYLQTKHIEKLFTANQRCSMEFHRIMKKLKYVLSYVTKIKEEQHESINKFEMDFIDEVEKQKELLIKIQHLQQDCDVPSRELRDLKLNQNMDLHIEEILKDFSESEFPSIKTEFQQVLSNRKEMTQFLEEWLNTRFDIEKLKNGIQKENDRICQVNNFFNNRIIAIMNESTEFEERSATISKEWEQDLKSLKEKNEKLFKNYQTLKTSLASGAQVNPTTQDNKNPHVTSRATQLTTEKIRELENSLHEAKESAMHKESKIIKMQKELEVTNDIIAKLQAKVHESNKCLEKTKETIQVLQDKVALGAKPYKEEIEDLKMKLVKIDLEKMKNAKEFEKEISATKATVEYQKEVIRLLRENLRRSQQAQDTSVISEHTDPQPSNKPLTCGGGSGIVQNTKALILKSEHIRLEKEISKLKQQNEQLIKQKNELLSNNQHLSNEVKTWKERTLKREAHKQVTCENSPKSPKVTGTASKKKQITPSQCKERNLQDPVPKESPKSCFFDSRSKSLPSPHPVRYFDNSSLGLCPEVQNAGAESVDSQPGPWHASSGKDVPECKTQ

Sequence of MPP1 (Q96Q89 whole entry): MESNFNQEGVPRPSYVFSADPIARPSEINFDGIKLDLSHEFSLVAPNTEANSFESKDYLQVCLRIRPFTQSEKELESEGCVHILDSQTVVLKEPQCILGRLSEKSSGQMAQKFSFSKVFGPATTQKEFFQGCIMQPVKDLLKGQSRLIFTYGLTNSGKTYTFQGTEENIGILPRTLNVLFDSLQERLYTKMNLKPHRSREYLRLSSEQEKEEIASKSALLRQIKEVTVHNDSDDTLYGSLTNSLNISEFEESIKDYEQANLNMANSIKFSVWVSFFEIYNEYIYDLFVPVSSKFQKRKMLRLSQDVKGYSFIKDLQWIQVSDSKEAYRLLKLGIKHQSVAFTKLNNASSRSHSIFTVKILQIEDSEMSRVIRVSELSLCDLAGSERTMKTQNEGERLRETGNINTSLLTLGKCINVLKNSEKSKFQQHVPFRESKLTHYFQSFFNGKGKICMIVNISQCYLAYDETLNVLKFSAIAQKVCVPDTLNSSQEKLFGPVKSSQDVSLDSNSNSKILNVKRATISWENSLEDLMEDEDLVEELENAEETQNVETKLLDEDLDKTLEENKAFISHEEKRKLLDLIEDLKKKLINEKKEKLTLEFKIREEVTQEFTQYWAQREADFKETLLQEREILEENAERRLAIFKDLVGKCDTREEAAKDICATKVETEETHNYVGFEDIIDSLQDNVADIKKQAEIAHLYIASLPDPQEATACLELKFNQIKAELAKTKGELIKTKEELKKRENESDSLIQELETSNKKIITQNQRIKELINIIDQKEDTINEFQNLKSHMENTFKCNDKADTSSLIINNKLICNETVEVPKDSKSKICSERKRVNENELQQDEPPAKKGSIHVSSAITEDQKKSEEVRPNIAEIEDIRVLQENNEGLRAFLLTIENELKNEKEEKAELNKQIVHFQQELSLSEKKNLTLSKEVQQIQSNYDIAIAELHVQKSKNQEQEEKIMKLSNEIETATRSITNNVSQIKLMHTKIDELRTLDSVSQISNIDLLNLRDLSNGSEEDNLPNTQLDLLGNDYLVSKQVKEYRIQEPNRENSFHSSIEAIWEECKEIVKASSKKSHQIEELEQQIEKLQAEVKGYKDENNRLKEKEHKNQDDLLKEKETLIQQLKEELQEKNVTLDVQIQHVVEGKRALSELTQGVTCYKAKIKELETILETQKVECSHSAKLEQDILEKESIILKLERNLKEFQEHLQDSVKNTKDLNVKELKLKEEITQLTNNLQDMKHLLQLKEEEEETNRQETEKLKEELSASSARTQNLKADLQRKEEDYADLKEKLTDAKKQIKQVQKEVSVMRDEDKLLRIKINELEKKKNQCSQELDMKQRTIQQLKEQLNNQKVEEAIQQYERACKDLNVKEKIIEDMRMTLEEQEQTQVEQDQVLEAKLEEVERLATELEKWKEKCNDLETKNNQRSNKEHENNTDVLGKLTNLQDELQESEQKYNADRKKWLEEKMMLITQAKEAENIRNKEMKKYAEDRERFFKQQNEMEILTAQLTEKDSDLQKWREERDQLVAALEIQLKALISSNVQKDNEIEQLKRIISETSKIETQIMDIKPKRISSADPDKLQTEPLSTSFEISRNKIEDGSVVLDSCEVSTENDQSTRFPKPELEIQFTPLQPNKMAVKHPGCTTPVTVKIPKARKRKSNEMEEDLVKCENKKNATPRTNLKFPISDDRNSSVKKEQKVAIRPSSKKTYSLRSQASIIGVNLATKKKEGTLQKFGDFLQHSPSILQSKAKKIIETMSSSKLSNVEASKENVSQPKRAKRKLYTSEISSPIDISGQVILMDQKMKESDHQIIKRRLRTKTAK

Cc1cccc(C(CCCN)(c2ccccc2)c2ccccc2)c1 [compound 30, 4-(3-Methylphenyl)-4,4-diphenylbutan-1-amine]
turbidimetric solubility pH 7.4: >100, >100, >100 μM
microsomal stability, Clint, human [1]: stable
microsomal stability, Clint, mice [2]: high microsomal clearance
recovery at 5 µM [3]: 69.1%

Cc1cccc(C(CCC(N)C(=O)O)(c2ccccc2)c2ccccc2)c1 (racemic) [rac-29, 2-Amino-5-(3-methylphenyl)-5,5-diphenylpentanoic acid]
GI50 (K562 cells): 91 ± 9 nM
inhibition of basal and MT-stimulated ATPase activities, Kif5a (Kif5a): did not observe any significant inhibition
inhibition of basal and MT-stimulated ATPase activities, Kif7 (Kif7): did not observe any significant inhibition
inhibition of basal and MT-stimulated ATPase activities, MPP1 (MPP1): did not observe any significant inhibition
inhibition of basal and MT-stimulated ATPase activities, MKLP-2 (MKLP-2): did not observe any significant inhibition
inhibition of basal and MT-stimulated ATPase activities, CENP-E (CENP-E): did not observe any significant inhibition
